# Experiments:
# Format in all cases: physicochemical
# [1] = Brilliant Green-Chlorhexidine formulation in THF/Methanol solvent mixture, observation of solution; settings: with BG, room temperature
# Experimental: 1.04 g Tecoflex 60D and 3.28 g Tecoflex 93A in 65 g were added in a glass jar containing 65 g of Tetrahydrofuran and stirred for four (4) hours at 45° C. Once all resin solids have dissolved, 23 g methanol added into the mixture and stirred for one (1) hour. 2.939 g chlorhexidine diacetate (CHA) was added into the solution mixture and stirred overnight at room temperature. Different Brilliant green (BG) concentrations (0.1 wt %-1.0 wt %) were added per the Table 4 below to an aliquot of the polymer-CHA solution and stirred until Brilliant Green dissolved:
# Table 5 below lists different formulations of BG and CHA.
# [2] = Brilliant Green-Chlorhexidine formulation in DMF/THF solvent mixture, observation of solution; settings: 40/60 THF/DMF, with BG, room temperature
# Experimental: In this experiment 40/60 THF/DMF solvent mixture was used instead of THF/Methanol from Example 17. Different Brilliant green (BG) concentrations (0.1 wt %-1.0 wt %) were added per the Table 5 below to an aliquot of the polymer-CHA solution (in Example 17) and stirred until Brilliant Green dissolved: […]
# [3] = CHA stability in polyurethane films after ethylene oxide (ETO) sterilization; settings: polyurethane films containing only CHA
# Experimental: (§1) Degradation is reported in the following examples as measured by HPLC as peak area of the degradant peak divided by the total peak area of the chlorhexidine peak and the degradant peak (i.e. Peak Areadegradant/[Peak Areadegradant+Peak Areachlorhexidine]*100). The peak areas are determined from integration of chromatograms.
# (§2) A high pressure liquid chromatography (HPLC) analytical method was developed to quantify Gentian violet and chlorhexidine. Both compounds have ultraviolet or visible wavelength absorbance, and so were characterized using a UV-Vis diode array detector. Chlorhexidine and Gentian violet are identified by retention times versus a set of external standards. The external standards also form a calibration curve that is used to quantify the chlorhexidine and Gentian violet content in samples. The method is summarized as follows:
# The sample preparation method, prior to HPLC analysis, is summarized as follows: samples were placed in centrifuge tubes, to which a volume of tetrahydrofuran (THF) was added (according to cited protocols or per examples). The tubes were vortexed until the sample was completely dissolved. For samples used as medical device coatings where a polymer was also present, a volume of deionized water was then added and the tubes were again vortexed for 10 minutes to precipitate the any polymer in the sample. […]
# [4] = CHA stability in polyurethane films containing no GV (HPLC); settings: vacuum dried and humidified films, 25, 35, 45, 55° C., 20 day incubation
# Experimental: as §1, §2
# The sample preparation method, prior to HPLC analysis, is summarized as follows: samples were placed in centrifuge tubes, to which a volume of tetrahydrofuran (THF) was added (according to cited protocols or per examples). The tubes were vortexed until the sample was completely dissolved. […]
# Samples were analyzed post air drying and post 20 day incubation. […]
# [5] = GV stability in polyurethane films containing no CHA (HPLC)
# Source text: as §2
# The sample preparation method, prior to HPLC analysis, is summarized as follows: samples were placed in centrifuge tubes, to which a volume of tetrahydrofuran (THF) was added (according to cited protocols or per examples). The tubes were vortexed until the sample was completely dissolved. For samples used as medical device coatings where a polymer was also present, a volume of deionized water was then added and the tubes were again vortexed for 10 minutes to precipitate the any polymer in the sample. The tubes were then centrifuged for 10 minutes at 4000 RPM to spin the polymer down out of the solution. A small amount of supernatant was transferred to an HPLC vial for analysis.
# Polyurethane films, used in the studies described in examples 4-6 and 9-11, were prepared as follows: 500 g of coating solution was prepared by dissolving 3.74% (w/w) Tecoflex 93A resin and 1.17% (w/w) Tecoflex 60D resin in a 74/26% mixture of THF/Methanol. The mixture was stirred until all of the resin was completely dissolved. 3.07% (w/w) chlorhexidine diacetate (CHA) was then added to the coating solution. Solutions containing different concentrations of GV were made by adding 0.1, 0.2, 0.4, 0.6, 0.8 or 1.0% (w/w) GV to 50 g aliquots of the CHA containing coating solution (or resin only solution in the case of GV only coating solution). 0.5 g of the CHA only, GV only, or 0.1-1.0% GV/CHA solutions was added to the bottom of a 30 mL glass vial and allowed to dry under ambient conditions overnight to evaporate the solvent and cast films in the vials. Vacuum dried samples were prepared by further drying the film containing vials at 25° C. under 30 in, Hg for 48 hours. Humidified samples were prepared by adding 75 μL of deionized water to the air dried samples and capping for the duration of the studies.
# Gentian violet only films were prepared according to example 2. Half of the vials were then spiked with 75 μL of deionized water and capped to create a 100% humidity environment, while the other half were vacuum dried ([…]) at 25° C. for 48 hours. The vials were then incubated in an oven at 25° C., 35° C., 45° C., and 55° C. for 20 days.
# Samples were analyzed post air drying and post 20 day incubation. Sample analysis was performed using the method in Example 1.
# Peak area ratios for pararosaniline chlorides are shown in Table 3 at different temperatures for 20 days. The peak area ratios for each temperature are calculated as follows: (Individual peak area)/Σ(individual peak)×100%. The variations are within the limits of experimental error further confirming the stability of GV in polyurethane films containing only GV.
SMILES,stirring time after which chlorhexidine diacetate precipitated [1],stirring time after which chlorhexidine diacetate precipitated [2],stability when ETO sterilized [3],degradation peaks in the chromatograms [4],"degradation products detected in the chromatograms ([5]; vacuum dried and humidified GV only films, 25-55° C., 20 days)",Peak area ratio for pararosaniline chlorides ([5]; 0 day control),Peak area ratio for pararosaniline chlorides ([5]; 25° C. at day 20),Peak area ratio for pararosaniline chlorides ([5]; 35° C. at day 20),Peak area ratio for pararosaniline chlorides ([5]; 45° C. at day 20),Peak area ratio for pararosaniline chlorides ([5]; 55° C. at day 20)
"CC(=O)O.CC(=O)O.NC(=N\CCCCCC/N=C(N)/N=C(\N)Nc1ccc(Cl)cc1)/N=C(\N)Nc1ccc(Cl)cc1 [CHA, chlorhexidine diacetate]",30 min,30 min,stable when sterilized,no degradation peaks,,,,,,
"CN(C)c1ccc(C(=C2C=CC(=[N+](C)C)C=C2)c2ccc(N(C)C)cc2)cc1 [GV, hexa-methyl pararosaniline chloride, reference compound]",,,,,no degradation products were detected,,,,,
"CN(C)c1ccc(C(=C2C=CC(=[N+](C)C)C=C2)c2ccc(N(C)C)cc2)cc1.[Cl-] [Hexamethyl, hexamethylpararosaniline chloride]",,,,,,42%,43%,44%,42%,45%

# The remaining lines, values ahead:
stirring time after which chlorhexidine diacetate precipitated [1],stirring time after which chlorhexidine diacetate precipitated [2],stability when ETO sterilized [3],degradation peaks in the chromatograms [4],"degradation products detected in the chromatograms ([5]; vacuum dried and humidified GV only films, 25-55° C., 20 days)",Peak area ratio for pararosaniline chlorides ([5]; 0 day control),Peak area ratio for pararosaniline chlorides ([5]; 25° C. at day 20),Peak area ratio for pararosaniline chlorides ([5]; 35° C. at day 20),Peak area ratio for pararosaniline chlorides ([5]; 45° C. at day 20),Peak area ratio for pararosaniline chlorides ([5]; 55° C. at day 20),SMILES
,,,,,44%,43%,43%,44%,43%,"CN=C1C=CC(=C(c2ccc(N(C)C)cc2)c2ccc(N(C)C)cc2)C=C1.Cl [Pentamethyl, pentamethylpararosaniline chloride]"
,,,,,14%,14%,13%,14%,12%,"CN(C)c1ccc(C(=C2C=CC(=[N+](C)C)C=C2)c2ccc(N)cc2)cc1.[Cl-] [Tetramethyl, tetramethylpararosaniline chloride]"
